Results as given in patent publication US12624023B2, “Sulfonylurea derivatives and uses thereof” (NodThera Limited, priority 2019, dated 2026).

What was measured:
[1] = test system: IL-1β release upon NLRP3 activation in peripheral blood mononuclear cells (PBMC); experiment: PBMC IC50 determination assay (IL-1β release, LPS priming + ATP stimulation, HTRF); format: cell-based; conditions: PBMC from buffy coats; LPS 1 μg/ml 3 h, compound 30 min, ATP 5 mM 1 h; IL-1β by HTRF
Method: The compounds of the present disclosure were tested for their inhibitory activity against IL-1β release upon NLRP3 activation in peripheral blood mononuclear cells (PBMC).
PBMC were isolated from buffy coats by density gradient centrifugation on Histopaque-1077 (Sigma, cat no. 10771). Isolated cells were seeded into the wells (280,000 cells/well) of a 96-well plate and incubated for 3 h with lipopolysaccharide (LPS, 1 μg/ml diluted 1000× from a 1 mg/ml stock solution). The compounds of the present disclosure were added (a single compound per well) and the cells were incubated for 30 min. Next, the cells were stimulated with ATP (5 mM final concentration diluted 20× from a 100 mM stock solution) for 1 h and the cell culture media from the wells were collected for further analysis.
(§1) The release of IL-1β into the media was determined by quantitative detection of IL-1β in the media using HTRF®, CisBio cat. No. 62HIL1BPEH. Briefly, cell culture supernatant were dispensed directly into the assay plate containing antibodies labelled with the HTRF® donor and acceptor. A microplate spectrophotometer (BMG) was used to detect signals at 655 nm and 620 nm. The detection range of IL-1β HTRF® was 39-6500 μg/ml.

[2] = test system: IL-1β release upon NLRP3 activation in human whole blood; experiment: Whole blood (WB) assay (IL-1β release, LPS priming + ATP stimulation, HTRF); format: cell-based; conditions: heparin, diluted 9:5 with media, LPS 1 μg/ml 3 h, compound 30 min, ATP 5 mM 1 h, IL-1β by HTRF
Method: The compounds of the present disclosure were tested for their inhibitory activity against IL-1β release upon NLRP3 activation in human whole blood.
Whole blood was drawn from single healthy donors and treated with sodium heparin anticoagulant. Blood was diluted with cell culture media at a 9:5 ratio, seeded in a 96-well plate and incubated for 3 h with lipopolysaccharide (LPS, 1 μg/ml final concentration diluted 1000× from a 1 mg/ml stock solution). The compounds of the present disclosure were added (a single compound concentration per well) and the blood was incubated for 30 min. Next, the blood was stimulated with ATP (5 mM final concentration diluted 20× from a 100 mM stock solution) for 1 h and the cell culture media from the wells were collected for further analysis.
as §1, with “were diluted as appropriate to bring IL-1β levels within the HTRF® detection range ([…]) and subsequently” for “were”, “dispensed” for “dispensed directly”, “nm.” for “nm. The detection range of IL-1β HTRF® was 39-6500 μg/ml.”

| Compound | IC50 [1] [µM] | IC50 [2] [µM] |
| --- | --- | --- |
| Cc1cc(NC(=O)NS(=O)(=O)N(c2cnn(C)c2)[C@H]2C[C@H](F)CN(C)C2)c(C(C)C)s1 [Compound 111, 1-{[(3S,5S)-5-Fluoro-1-methylpiperidin-3-yl](1-methyl-1H-pyrazol-4-yl)sulfamoyl}-3-[5-methyl-2-(propan-2-yl)thiophen-3-yl]urea] | 0.1 to 0.5 | 1 to 3 |
| CCc1sc2c(c1NC(=O)NS(=O)(=O)N(c1cnn(C)c1)C1CCCN(C)C1)CCC2 (stereo not shown) [Compound 77, 3-{2-Ethyl-4H,5H,6H-cyclopenta[b]thiophen-3-yl}-1-[(1-methyl-1H-pyrazol-4-yl)(1-methylpiperidin-3-yl)sulfamoyl]urea] | < 0.1 | < 1 |
| Cc1sc2ccccc2c1NC(=O)NS(=O)(=O)N(c1cnn(C)c1)C1CCCN(C)C1 (stereo not shown) [Compound 12, 3-(2-Methyl-1-benzothiophen-3-yl)-1-[(1-methyl-1H-pyrazol-4-yl)(1-methyl-piperidin-3-yl)sulfamoyl]urea] | 0.5 to 1 | 1 to 3 |
| CCc1sc2c(c1NC(=O)NS(=O)(=O)N(c1cnn(C)c1)C1CCCN(C)C1)CCCC2 (stereo not shown) [Compound 86, 3-(2-Ethyl-4,5,6,7-tetrahydro-1-benzothiophen-3-yl)-1-[(1-methyl-1H-pyrazol-4-yl)(1-methylpiperidin-3-yl)sulfamoyl]urea] | 0.1 to 0.5 | 1 to 3 |
| CCc1cc(NC(=O)NS(=O)(=O)N(CCN(C)C)c2cnn(C)c2)c(CC)s1 [Compound 19, 3-(2,5-Diethylthiophen-3-yl)-1-{[2-(dimethylamino)ethyl](1-methyl-1H-pyrazol-4-yl)sulfamoyl}urea] | 0.1 to 0.5 | 1 to 3 |
| CCc1oc(C(C)C)cc1NC(=O)NS(=O)(=O)N(c1cnn(C)c1)C1CCCN(C)C1 (stereo not shown) [Compound 78, 3-[2-Ethyl-5-(propan-2-yl)furan-3-yl]-1-[(1-methyl-1H-pyrazol-4-yl)(1-methyl-piperidin-3-yl)sulfamoyl]urea] | 0.5 to 1 | 1 to 3 |
| CCc1cc(NC(=O)NS(=O)(=O)N(CC2CCCO2)c2cnn(C)c2)c(CC)o1 (stereo not shown) [Compound 74, 1-(2,5-Diethylfuran-3-yl)-3-[(1-methyl-1H-pyrazol-4-yl)[(oxolan-2-yl)methyl]-sulfamoyl]urea] | 1 to 5 | – |
| CCc1cc(NC(=O)NS(=O)(=O)N(C[C@@H]2C[C@@H](F)CN2C)c2cnn(C(C)C)c2)c(CC)o1 [Compound 63, 3-(2,5-Diethylfuran-3-yl)-1-({[(2S,4R)-4-fluoro-1-methylpyrrolidin-2-yl]methyl}[1-(propan-2-yl)-1H-pyrazol-4-yl]sulfamoyl)urea] | 1 to 5 | – |
| CCc1nc(NC(=O)NS(=O)(=O)N(c2cnn(C)c2)C2CCCN(C)C2)c(CC)s1 (stereo not shown) [Compound 31, 3-(2,5-Diethyl-1,3-thiazol-4-yl)-1-[(1-methyl-1H-pyrazol-4-yl)(1-methyl-piperidin-3-yl)sulfamoyl]urea] | 5 to 10 | – |
| Cc1cc(NC(=O)NS(=O)(=O)N(c2cnn(C3CC3)c2)[C@H]2CCCN(C)C2)c(C2CC2)s1 [Compound 105, 1-[(1-Cyclopropyl-1H-pyrazol-4-yl)[(3S)-1-methylpiperidin-3-yl]sulfamoyl]-3-(2-cyclopropyl-5-methylthiophen-3-yl)urea] | 0.1 to 0.5 | – |
| CCc1cc(NC(=O)NS(=O)(=O)N(C2CCOCC2)C2CCCN(C)C2)c(CC)s1 (stereo not shown) [Compound 68, 3-(2,5-Diethylthiophen-3-yl)-1-[(1-methylpiperidin-3-yl)(oxan-4-yl)sulfamoyl]-urea] | 5 to 10 | – |
| CCc1cc(NC(=O)NS(=O)(=O)N(CCN(C)C)c2cnn(C)c2)c(CC)o1 [Compound 72, 3-(2,5-Diethylfuran-3-yl)-1-{[2-(dimethylamino)ethyl](1-methyl-1H-pyrazol-4-yl)sulfamoyl}urea] | 1 to 5 | – |
| Cc1csc(NC(=O)NS(=O)(=O)N(c2cnn(C)c2)C2CCCN(C)C2)c1C (stereo not shown) [Compound 17, 3-(3,4-Dimethylthiophen-2-yl)-1-[(1-methyl-1H-pyrazol-4-yl)(1-methyl-piperidin-3-yl)sulfamoyl]urea] | 5 to 10 | – |
